Measured values: patent US6437128B1, “Cribrostatins 3-5” (Arizona Board of Regents, priority 2001, dated 2002)

Legend:
Assay in all cases: Antimicrobial disk diffusion
Format in all cases: cell-based
[1] = tested on: Bacillus subtilis (Presque Isle 620)
[2] = tested on: Stenotrophomonas maltophilia (ATCC 13637)
[3] = tested on: Candida albicans (ATCC 90028)
[4] = tested on: Penicillin-resistant N. gonorrhoeae (clinical isolate)
[5] = tested on: Escherichia coli (ATCC 25922)
[6] = tested on: Enterococcus faecalis (ATCC 29212)
[7] = tested on: Cryptococcus neoformans (ATCC 90112)
[8] = tested on: Staphylococcus aureus (ATCC 29213)
[9] = tested on: Micrococcus luteus (Presque Isle 456)
[10] = tested on: Neisseria gonorrhoeae (ATCC 49226)
[11] = tested on: Streptococcus pneumoniae (ATCC 6303)
[12] = tested on: Enterobacter cloacae (ATCC 13047)
[13] = tested on: Penicillin-resistant S. pneumoniae (clinical isolate)
[14] = tested on: Group A Streptococcus (clinical isolate)
[15] = tested on: Invasive S. pneumoniae (clinical isolate)

Structure (SMILES) | Minimum inhibitory concentration [1] | Minimum inhibitory concentration [2] | Minimum inhibitory concentration [3] | Minimum inhibitory concentration [4] | Minimum inhibitory concentration [5] | Minimum inhibitory concentration [6] | Minimum inhibitory concentration [7] | Minimum inhibitory concentration [8] | Minimum inhibitory concentration [9] | Minimum inhibitory concentration [10] | Minimum inhibitory concentration [11] | Minimum inhibitory concentration [12] | Minimum inhibitory concentration [13] | Minimum inhibitory concentration [14] | Minimum inhibitory concentration [15]
CC1=C(N)C(=O)c2c(ccnc2C)C1=O [Cribrostatin 1, cribrostatin 1, reference compound] | * (No inhibition at 100 μg/disk) | * (No inhibition at 100 μg/disk) | * (No inhibition at 100 μg/disk) | 0.39-0.78 μg/disk | * (No inhibition at 100 μg/disk) | * (No inhibition at 100 μg/disk) | * (No inhibition at 100 μg/disk) | * (No inhibition at 100 μg/disk) | * (No inhibition at 100 μg/disk) | 0.39-0.78 μg/disk | * (No inhibition at 100 μg/disk) | * (No inhibition at 100 μg/disk) |  |  | 
CCOC1=C(C)C(=O)c2cc(=O)n(C)cc2C1=O [Cribrostatin 2, cribrostatin 2, reference compound] | 25-50 μg/disk | * (No inhibition at 100 μg/disk) | 3.12-6.25 μg/disk | 0.39-0.78 μg/disk | * (No inhibition at 100 μg/disk) | * (No inhibition at 100 μg/disk) | 12.5-25 μg/disk | 12.5-25 μg/disk | 50-100 μg/disk | 0.39-0.78 μg/disk | 12.3-25 μg/disk | * (No inhibition at 100 μg/disk) | 25-50 μg/disk | * (No inhibition at 100 μg/disk) | 50-100 μg/disk
